Source: ChEMBL document CHEMBL4417636, “Small molecule inhibitors of pendrin ion exchange and pharmaceutical compositions” (2017)
pIC50: −log10 of the molar value. Activity calls are given as the source filed them. The calls are words filed in the database; no cut-off is given here.

Key:
Pendrin (Mus musculus) [1] = target: T1, Pendrin (Mus musculus) (UniProt Q9R155); assay: Inhibition of mouse pendrin expressed in FRT cells co-expressing YFP-HIF assessed as reduction in pendrin-mediated kinetics of CI7HCO3(-) exchange by pH-sensitive fluorescent probe BCECF-AM based fluorescence assay relative to control; format: cell-based
T1 sequence (whole entry): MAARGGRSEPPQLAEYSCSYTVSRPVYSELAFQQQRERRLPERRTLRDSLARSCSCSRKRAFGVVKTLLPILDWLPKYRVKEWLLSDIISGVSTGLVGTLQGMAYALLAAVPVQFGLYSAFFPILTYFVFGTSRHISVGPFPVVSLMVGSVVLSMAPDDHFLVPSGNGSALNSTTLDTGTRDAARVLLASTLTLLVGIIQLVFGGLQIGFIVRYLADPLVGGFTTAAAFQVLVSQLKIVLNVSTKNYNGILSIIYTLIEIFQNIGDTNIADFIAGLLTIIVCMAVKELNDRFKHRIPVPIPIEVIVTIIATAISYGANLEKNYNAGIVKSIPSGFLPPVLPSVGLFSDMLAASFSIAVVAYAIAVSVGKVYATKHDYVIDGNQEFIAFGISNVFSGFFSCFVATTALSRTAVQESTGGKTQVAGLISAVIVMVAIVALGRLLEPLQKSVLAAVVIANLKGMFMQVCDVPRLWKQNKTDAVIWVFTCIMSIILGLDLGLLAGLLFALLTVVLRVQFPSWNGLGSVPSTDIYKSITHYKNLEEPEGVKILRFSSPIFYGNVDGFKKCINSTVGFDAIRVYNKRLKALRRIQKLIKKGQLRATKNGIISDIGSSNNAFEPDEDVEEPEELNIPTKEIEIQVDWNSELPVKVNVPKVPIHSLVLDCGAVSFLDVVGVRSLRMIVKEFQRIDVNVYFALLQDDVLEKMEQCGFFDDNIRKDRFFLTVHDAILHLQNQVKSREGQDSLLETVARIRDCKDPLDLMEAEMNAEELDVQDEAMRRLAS

Pendrin (Mus musculus) [2] = target: T1, Pendrin (Mus musculus); assay: Inhibition of mouse pendrin expressed in FRT cells co-expressing YFP-HIF assessed as reduction in pendrin-mediated exchange of Cl(-) with I(-) by pH-sensitive fluorescent probe BCECF-AM based fluorescence assay relative to control; format: cell-based
Mus musculus [3] = assay: Potentiation of 5 to 50 mg/kg, ip furosemide-induced acute diuretic action in CD1 mouse assessed as increase in urine volume at 50 mg/kg, ip relative to control; format: functional, organism-based
Mus musculus [4] = assay: Potentiation of 20 mg/kg, ip furosemide-induced acute diuretic action in CD1 mouse assessed as effect on urinary K+ excretion at 50 mg/kg, ip measured at 3 hrs relative to control; format: functional, organism-based
Pendrin = target: T2, Pendrin (Homo sapiens, UniProt O43511); assay: Inhibition of human pendrin expressed in FRT cells co-expressing EYFP-HIF assessed as reduction in pendrin-mediated C17NO3(-) exchange incubated for 10 mins by pH-sensitive fluorescent probe BCECF-AM based fluorescence assay relative to control; format: cell-based
T2 sequence (O43511 whole entry): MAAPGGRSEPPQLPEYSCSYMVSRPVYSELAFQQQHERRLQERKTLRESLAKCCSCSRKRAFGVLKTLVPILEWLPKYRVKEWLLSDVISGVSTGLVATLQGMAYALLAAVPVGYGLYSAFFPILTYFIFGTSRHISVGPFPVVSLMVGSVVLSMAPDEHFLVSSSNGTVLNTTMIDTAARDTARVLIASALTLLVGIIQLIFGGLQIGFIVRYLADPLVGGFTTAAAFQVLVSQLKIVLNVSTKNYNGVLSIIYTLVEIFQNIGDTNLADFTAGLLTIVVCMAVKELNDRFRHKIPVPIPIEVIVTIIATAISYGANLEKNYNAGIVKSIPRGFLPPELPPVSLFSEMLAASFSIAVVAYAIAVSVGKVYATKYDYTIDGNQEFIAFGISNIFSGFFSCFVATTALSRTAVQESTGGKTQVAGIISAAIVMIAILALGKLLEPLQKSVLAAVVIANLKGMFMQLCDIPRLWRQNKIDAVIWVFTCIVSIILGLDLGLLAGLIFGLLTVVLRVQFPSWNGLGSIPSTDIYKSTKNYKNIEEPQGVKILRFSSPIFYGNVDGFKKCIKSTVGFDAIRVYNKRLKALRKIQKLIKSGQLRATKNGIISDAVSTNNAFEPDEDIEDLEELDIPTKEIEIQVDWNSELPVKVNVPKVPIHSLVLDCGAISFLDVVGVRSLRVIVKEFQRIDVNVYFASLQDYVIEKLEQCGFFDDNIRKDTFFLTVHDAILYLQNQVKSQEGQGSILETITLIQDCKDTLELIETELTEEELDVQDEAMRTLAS

Mus musculus [5] = assay: Potentiation of 20 mg/kg, ip furosemide-induced acute diuretic action in CD1 mouse assessed as increase in urinary Na+ excretion at 50 mg/kg, ip measured at 3 hrs relative to control; format: functional, organism-based
Homo sapiens [6] = species: Homo sapiens; assay: Inhibition of ENaC in human bronchial epithelial cells assessed as effect on short-circuit current at 25 uM pre-incubated for 30 mins
Mus musculus [7] = assay: Potentiation of 20 mg/kg, ip bid for 8 days furosemide-induced chronic diuretic action in CD1 mouse assessed as increase in urine volume at 10 mg/kg, ip measured at 3 hrs relative to control; format: functional
Homo sapiens [8] = species: Homo sapiens; assay: Inhibition of potassium channel in human bronchial epithelial cells assessed as effect on short-circuit current at 25 uM pre-incubated for 30 mins
[9] = target: Cystic fibrosis transmembrane conductance regulator (Homo sapiens) (UniProt P13569); assay: Inhibition of CFTR in human bronchial epithelial cells assessed as effect on short-circuit current at 25 uM pre-incubated for 30 mins
Homo sapiens [10] = species: Homo sapiens; assay: Effect on airway surface liquid pH in NHBE cells at 25 uM by pH-sensitive fluorophore BCECF based fluorescence based assay; format: functional, cell-based
Homo sapiens [11] = species: Homo sapiens; assay: Effect on airway surface liquid depth in NHBE cells at 25 uM by rhodamine B-dextran fluorescence based confocal microscopy; format: functional, cell-based
Homo sapiens [12] = species: Homo sapiens; assay: Inhibition of CaCC in human bronchial epithelial cells assessed as effect on short-circuit current at 25 uM pre-incubated for 30 mins

Cystic fibrosis transmembrane conductance regulator (Homo sapiens), sequence (P13569 whole entry, looked up): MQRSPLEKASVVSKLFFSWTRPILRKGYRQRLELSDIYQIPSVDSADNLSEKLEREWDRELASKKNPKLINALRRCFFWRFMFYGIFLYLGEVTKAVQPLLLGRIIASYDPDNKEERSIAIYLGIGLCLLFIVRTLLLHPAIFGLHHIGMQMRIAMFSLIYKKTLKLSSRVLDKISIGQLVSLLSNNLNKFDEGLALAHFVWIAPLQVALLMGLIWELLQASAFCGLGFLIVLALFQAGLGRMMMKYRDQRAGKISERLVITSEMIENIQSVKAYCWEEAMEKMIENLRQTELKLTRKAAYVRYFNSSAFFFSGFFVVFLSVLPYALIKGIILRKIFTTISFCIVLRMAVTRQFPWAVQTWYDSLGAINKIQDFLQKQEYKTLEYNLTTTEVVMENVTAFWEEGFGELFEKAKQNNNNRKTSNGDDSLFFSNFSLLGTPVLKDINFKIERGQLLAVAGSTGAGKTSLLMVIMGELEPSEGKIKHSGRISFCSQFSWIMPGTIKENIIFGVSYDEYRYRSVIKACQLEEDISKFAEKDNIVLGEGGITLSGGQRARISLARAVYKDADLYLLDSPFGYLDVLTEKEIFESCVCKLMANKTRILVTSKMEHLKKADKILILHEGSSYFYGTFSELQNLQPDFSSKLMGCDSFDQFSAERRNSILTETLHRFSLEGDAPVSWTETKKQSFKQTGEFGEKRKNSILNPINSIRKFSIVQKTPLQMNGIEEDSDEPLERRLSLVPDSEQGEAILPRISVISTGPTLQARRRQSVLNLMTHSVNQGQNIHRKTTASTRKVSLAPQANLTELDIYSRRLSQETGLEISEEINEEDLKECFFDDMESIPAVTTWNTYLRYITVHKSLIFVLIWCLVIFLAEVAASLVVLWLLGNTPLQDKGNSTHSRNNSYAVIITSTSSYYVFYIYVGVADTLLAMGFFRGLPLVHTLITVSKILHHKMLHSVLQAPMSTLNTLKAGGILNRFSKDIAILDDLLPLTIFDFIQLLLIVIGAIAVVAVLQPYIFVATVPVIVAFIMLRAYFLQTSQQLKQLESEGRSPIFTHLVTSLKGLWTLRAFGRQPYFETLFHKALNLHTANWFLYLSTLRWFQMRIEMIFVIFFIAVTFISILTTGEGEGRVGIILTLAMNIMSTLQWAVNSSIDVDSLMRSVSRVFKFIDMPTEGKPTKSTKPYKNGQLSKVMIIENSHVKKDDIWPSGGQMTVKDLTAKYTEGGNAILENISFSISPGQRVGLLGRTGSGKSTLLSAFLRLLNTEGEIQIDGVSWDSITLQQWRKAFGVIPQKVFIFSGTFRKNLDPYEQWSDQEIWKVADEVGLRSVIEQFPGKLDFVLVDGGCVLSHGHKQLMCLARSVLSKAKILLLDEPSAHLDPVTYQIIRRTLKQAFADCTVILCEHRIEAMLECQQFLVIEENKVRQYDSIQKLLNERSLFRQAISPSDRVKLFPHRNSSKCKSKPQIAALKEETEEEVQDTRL

Row | inhibition (Pendrin (Mus musculus) [1]) | inhibition (Pendrin (Mus musculus) [2]) | pIC50 (Pendrin) | inhibition (Homo sapiens [6]) | inhibition (Homo sapiens [8]) | inhibition [9] | inhibition (Homo sapiens [12]) | SMILES | Activity (Mus musculus [3]) | Activity (Mus musculus [4]) | Activity (Mus musculus [5]) | Activity (Mus musculus [7]) [%] | Activity (Homo sapiens [10]) | Activity (Homo sapiens [11])
1 | Dose-dependent effect | Dose-dependent effect | 5.30 |  |  |  |  | Cc1n[nH]c(-c2cc(S(=O)(=O)NC3CCCc4ccccc43)c(C)s2)c1C (stereo not drawn) | Active | inactive | Active |  |  | 
2 |  |  |  | inactive | inactive | inactive | inactive | Cn1nc(COc2cccc(F)c2)c2c1CCN(C(=O)Nc1ccc(Cl)cc1)C2 |  |  |  | 60 | inactive | inactive
